Entries after “also recorded” stand apart in the source; their conditions may differ.
Test system: CD34+ myeloblast cells in healthy BMMCs
Test: Effects of therapeutics on healthy bone marrow mononuclear cells: CD45 versus CD34 expression by flow cytometry
Assay type: cell-based
Conditions: live healthy BMMCs, 1:3 dilutions, 100 μM to 0.0017 μM, after 24 hours

SMILES	loss / viability of the rare population of CD34+ myeloblast cells
Nc1ncn([C@@H]2O[C@H](CO)[C@@H](O)[C@H]2O)c(=O)n1 [5-Azacytidine]	dose-dependent loss of a rare population of CD34+ myeloblast cells; also recorded: concentration dependent loss of CD34+ myeloblast cells
O=C(CCCCCCC(=O)Nc1ccccc1)NO [Vorinostat]	selective loss of rare population of CD34+ myeloblast cells in a dose-dependent fashion; also recorded: concentration dependent loss of CD34+ myeloblast cells

Source: patent publication US20140134648A1, “METHODS OF DETERMINING THE HEALTH STATUS OF AN INDIVIDUAL” (NODALITY, INC., priority 2008, published 2014)
